± gives the expanded uncertainty stated by the source.

Data set [1] can be described thus: refractive index (Na D-line) (dimensionless). The settings on record: 298.1 K, 101.33 kPa, Liquid.
For data set [2] the following is noted: 101.33 kPa, Liquid; for mass density: 298.1 K, Vibrating tube method; for speed of sound: 298.15 K, Anton Paar DSA 48.

Broadly, the refractive index is the speed of light in vacuum divided by its phase velocity in the sample. A word on the mass density: it is the mass of a sample divided by its volume. The term speed of sound denotes how fast a sound wave travels through the sample. In the case of `CCCCOC(C)(C)C` [butane, 1-(1,1-dimethylethoxy)-], the refractive index in data set [1] (Anton Paar DSA 48) stood at 1.3917 ± 5e-05. Besides, in data set [2], the mass density worked out at 757.57 ± 0.17 kg/m3 and the speed of sound was 1113 ± 2 m/s.
As to `CCO` [ethanol], the refractive index in data set [1] (ATAGO RX-1000) was determined as 1.3592 ± 0.00011. For the same compound, in data set [2], the mass density is given as 785.22 ± 0.25 kg/m3 and the speed of sound is reported as 1143 ± 2 m/s.
For `CO` [methanol], in that order: 1.3264 ± 0.0002, 786.63 ± 0.25 kg/m3 and 1101 ± 2 m/s.
Regarding `O` [water], the refractive index in data set [1] (ATAGO RX-1000) came to 1.3325 ± 8e-05.

These data come from the NIST ThermoML archive (doi:10.1016/j.tca.2005.04.030).
